Source: US12252524B2, “GIP/GLP1 co-agonist compounds” (Eli Lilly and Company, priority 2018, dated 2025)
Numbered stars: 1 amine (or outer) side, 2 acyl side, 3 side chain; on linkers, the order of the positions; unused ones are H or OH. Square brackets hold non-standard residues; d marks the D form. Side chains are listed from the residue outwards. Peptide text beside a SMILES is read from it. * marks the point of attachment. C20 diacid = O=C(O)CCCCCCCCCCCCCCCCCCC(=O)*; C18 diacid = O=C(O)CCCCCCCCCCCCCCCCC(=O)*; αMePhe(2-F) = C[C@](N)(Cc1ccccc1F)C(=O)O; C16 diacid = O=C(O)CCCCCCCCCCCCCCC(=O)*; γGlu = O=C(O)[C@H](CCC(=O)[*:2])N[*:1]; αMeL = CC(C)C[C@](C)(N)C(=O)O; Orn = NCCC[C@H](N)C(=O)O; AEEA = NCCOCCOCC(=O)O; Aib = CC(C)(N)C(=O)O

Key:
[1] = biological target: human GLP-1 receptor (GLP-1R) (Homo sapiens, UniProt P43220); test: cAMP pharmacological functional assay in presence of casein, hGLP-1R; assay type: cell-based; settings: HEK293 cells expressing hGLP-1R, 0.1% Casein, geometric mean; read-out: hGLP1R cAMP Rel EC50 nM (SEM, n)
[2] = biological target: T1, gastric inhibitory peptide receptor (GIPR) (Homo sapiens, UniProt P48546); test: cAMP pharmacological functional assay in presence of casein, hGIPR; assay type: cell-based; settings: HEK293 cells expressing hGIPR, 0.1% Casein, geometric mean; read-out: hGIPR cAMP Rel EC50 nM (SEM, n)
T1 sequence (P48546 22-466): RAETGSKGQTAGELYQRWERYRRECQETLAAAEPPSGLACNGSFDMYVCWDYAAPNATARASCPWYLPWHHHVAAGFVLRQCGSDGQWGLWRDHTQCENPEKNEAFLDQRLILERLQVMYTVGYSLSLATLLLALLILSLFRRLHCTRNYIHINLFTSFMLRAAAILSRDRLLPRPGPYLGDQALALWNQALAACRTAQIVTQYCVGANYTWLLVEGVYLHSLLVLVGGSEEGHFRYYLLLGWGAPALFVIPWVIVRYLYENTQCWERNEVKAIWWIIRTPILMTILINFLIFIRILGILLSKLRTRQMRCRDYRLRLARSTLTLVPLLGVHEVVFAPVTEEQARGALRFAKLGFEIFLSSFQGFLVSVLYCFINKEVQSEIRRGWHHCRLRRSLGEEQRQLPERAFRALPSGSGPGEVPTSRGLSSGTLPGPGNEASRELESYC

human GLP-1 receptor (GLP-1R), sequence (P43220 24-463): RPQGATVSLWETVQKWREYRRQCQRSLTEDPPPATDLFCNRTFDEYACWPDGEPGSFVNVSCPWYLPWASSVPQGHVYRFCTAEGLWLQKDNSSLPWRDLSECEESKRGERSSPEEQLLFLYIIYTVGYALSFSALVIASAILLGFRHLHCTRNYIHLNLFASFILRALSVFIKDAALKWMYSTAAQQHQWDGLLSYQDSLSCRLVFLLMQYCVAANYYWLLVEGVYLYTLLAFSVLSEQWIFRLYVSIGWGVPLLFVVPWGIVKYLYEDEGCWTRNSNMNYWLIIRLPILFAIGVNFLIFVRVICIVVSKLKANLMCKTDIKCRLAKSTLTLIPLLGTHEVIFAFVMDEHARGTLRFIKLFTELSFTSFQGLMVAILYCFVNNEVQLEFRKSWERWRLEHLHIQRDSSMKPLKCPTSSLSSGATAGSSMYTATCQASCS

For `CC[C@H](C)[C@H](NC(=O)[C@H](CC(C)C)NC(=O)[C@H](Cc1ccc(O)cc1)NC(=O)[C@@H](CCC(=O)O)NC(=O)[C@@H](NC(=O)[C@H](Cc1ccccc1)NC(=O)[C@@H](NC(=O)C(C)(C)NC(=O)[C@H](CCC(N)=O)NC(=O)[C@H](C)NC(=O)[C@H](CCCCNC(=O)COCCOCCNC(=O)COCCOCCNC(=O)CC[C@H](NC(=O)CCCCCCCCCCCCCCCCCCC(=O)O)C(=O)O)NC(=O)[C@H](CCC(=O)O)NC(=O)[C@H](CC(=O)O)NC(=O)[C@H](CC(C)C)NC(=O)[C@](C)(CC(C)C)NC(=O)[C@@H](NC(=O)[C@H](CO)NC(=O)[C@H](Cc1c[nH]cn1)NC(=O)[C@H](CC(=O)O)NC(=O)[C@H](CO)NC(=O)[C@@H](NC(=O)[C@](C)(Cc1ccccc1F)NC(=O)[C@@H](NC(=O)CNC(=O)[C@H](CCC(=O)O)NC(=O)C(C)(C)NC(=O)[C@@H](N)Cc1ccc(O)cc1)[C@@H](C)O)[C@@H](C)O)[C@@H](C)CC)[C@@H](C)O)[C@@H](C)CC)C(=O)N[C@@H](CCC(=O)O)C(=O)NCC(=O)NCC(=O)N1CCC[C@H]1C(=O)N[C@@H](CO)C(=O)N[C@@H](CO)C(=O)NCC(N)=O` [Example 167] (H-Y[Aib]EGT[αMePhe(2-F)]TSDHSI[αMeL]LDEK([AEEA-AEEA-γGlu-C20 diacid])AQ[Aib]TFI[dE]YLIEGGPSSG-NH2), the EC50 [1] was 1.2 nM and the EC50 [2] was 0.617 nM.
Work on `CC[C@H](C)[C@H](NC(=O)[C@H](CC(C)C)NC(=O)[C@H](Cc1ccc(O)cc1)NC(=O)[C@@H](CCC(=O)O)NC(=O)[C@@H](NC(=O)[C@H](Cc1ccccc1)NC(=O)[C@@H](NC(=O)C(C)(C)NC(=O)[C@H](CCC(N)=O)NC(=O)[C@H](C)NC(=O)[C@H](CCCCNC(=O)COCCOCCNC(=O)COCCOCCNC(=O)CC[C@H](NC(=O)CCCCCCCCCCCCCCCCCCC(=O)O)C(=O)O)NC(=O)[C@H](CCC(=O)O)NC(=O)[C@H](CC(=O)O)NC(=O)[C@H](CC(C)C)NC(=O)[C@](C)(CC(C)C)NC(=O)[C@@H](NC(=O)[C@H](CO)NC(=O)[C@H](Cc1c[nH]cn1)NC(=O)[C@H](CC(=O)O)NC(=O)[C@H](CO)NC(=O)[C@@H](NC(=O)[C@](C)(Cc1ccccc1F)NC(=O)[C@@H](NC(=O)CNC(=O)[C@H](CCC(=O)O)NC(=O)C(C)(C)NC(=O)[C@@H](N)Cc1ccc(O)cc1)[C@@H](C)O)[C@@H](C)O)[C@@H](C)CC)[C@@H](C)O)[C@@H](C)CC)C(=O)N[C@@H](CCC(=O)O)C(=O)NCC(=O)NCC(=O)N1CCC[C@H]1C(=O)N[C@@H](CO)C(=O)N[C@@H](CO)C(=O)NCC(=O)N[C@@H](C)C(=O)N1CCC[C@H]1C(=O)N1CCC[C@H]1C(=O)N1CCC[C@H]1C(=O)N[C@@H](CO)C(N)=O` [Example 168] (H-Y[Aib]EGT[αMePhe(2-F)]TSDHSI[αMeL]LDEK([AEEA-AEEA-γGlu-C20 diacid])AQ[Aib]TFI[dE]YLIEGGPSSGAPPPS-NH2) yielded an EC50 [1] of 1.8 nM and an EC50 [2] of 0.572 nM.
With `CC[C@H](C)[C@H](NC(=O)[C@H](CC(C)C)NC(=O)[C@H](Cc1ccc(O)cc1)NC(=O)[C@@H](CCC(=O)O)NC(=O)[C@@H](NC(=O)[C@H](Cc1ccccc1)NC(=O)[C@@H](NC(=O)C(C)(C)NC(=O)[C@H](CCC(N)=O)NC(=O)[C@H](C)NC(=O)[C@H](CCCCNC(=O)COCCOCCNC(=O)COCCOCCNC(=O)CC[C@H](NC(=O)CCCCCCCCCCCCCCCCC(=O)O)C(=O)O)NC(=O)[C@H](CCC(=O)O)NC(=O)[C@H](CC(=O)O)NC(=O)[C@H](CC(C)C)NC(=O)[C@](C)(CC(C)C)NC(=O)[C@@H](NC(=O)[C@H](CO)NC(=O)[C@H](Cc1c[nH]cn1)NC(=O)[C@H](CC(=O)O)NC(=O)[C@H](CO)NC(=O)[C@@H](NC(=O)[C@](C)(Cc1ccccc1F)NC(=O)[C@@H](NC(=O)CNC(=O)[C@H](CCC(=O)O)NC(=O)C(C)(C)NC(=O)[C@@H](N)Cc1ccc(O)cc1)[C@@H](C)O)[C@@H](C)O)[C@@H](C)CC)[C@@H](C)O)[C@@H](C)CC)C(=O)N[C@@H](CCC(=O)O)C(=O)NCC(=O)NCC(=O)N1CCC[C@H]1C(=O)N[C@@H](CO)C(=O)N[C@@H](CO)C(=O)NCC(=O)N[C@@H](C)C(=O)N1CCC[C@H]1C(=O)N1CCC[C@H]1C(=O)N1CCC[C@H]1C(=O)N[C@@H](CO)C(N)=O` [Example 169] (H-Y[Aib]EGT[αMePhe(2-F)]TSDHSI[αMeL]LDEK([AEEA-AEEA-γGlu-C18 diacid])AQ[Aib]TFI[dE]YLIEGGPSSGAPPPS-NH2) the EC50 [1] was 3.37 nM and the EC50 [2] was 0.86 nM.
`CC[C@H](C)[C@H](NC(=O)[C@H](CC(C)C)NC(=O)[C@H](Cc1ccc(O)cc1)NC(=O)[C@@H](CCC(=O)O)NC(=O)[C@@H](NC(=O)[C@H](Cc1ccccc1)NC(=O)[C@@H](NC(=O)C(C)(C)NC(=O)[C@H](CCC(N)=O)NC(=O)[C@H](C)NC(=O)[C@H](CCCCNC(=O)COCCOCCNC(=O)COCCOCCNC(=O)CC[C@H](NC(=O)CCCCCCCCCCCCCCC(=O)O)C(=O)O)NC(=O)[C@H](CCC(=O)O)NC(=O)[C@H](CC(=O)O)NC(=O)[C@H](CC(C)C)NC(=O)[C@](C)(CC(C)C)NC(=O)[C@@H](NC(=O)[C@H](CO)NC(=O)[C@H](Cc1c[nH]cn1)NC(=O)[C@H](CC(=O)O)NC(=O)[C@H](CO)NC(=O)[C@@H](NC(=O)[C@](C)(Cc1ccccc1F)NC(=O)[C@@H](NC(=O)CNC(=O)[C@H](CCC(=O)O)NC(=O)C(C)(C)NC(=O)[C@@H](N)Cc1ccc(O)cc1)[C@@H](C)O)[C@@H](C)O)[C@@H](C)CC)[C@@H](C)O)[C@@H](C)CC)C(=O)N[C@@H](CCC(=O)O)C(=O)NCC(=O)NCC(=O)N1CCC[C@H]1C(=O)N[C@@H](CO)C(=O)N[C@@H](CO)C(=O)NCC(=O)N[C@@H](C)C(=O)N1CCC[C@H]1C(=O)N1CCC[C@H]1C(=O)N1CCC[C@H]1C(=O)N[C@@H](CO)C(N)=O` [Example 170] (H-Y[Aib]EGT[αMePhe(2-F)]TSDHSI[αMeL]LDEK([AEEA-AEEA-γGlu-C16 diacid])AQ[Aib]TFI[dE]YLIEGGPSSGAPPPS-NH2) gave an EC50 [1] of 10.4 nM and an EC50 [2] of 0.569 nM.
`CC[C@H](C)[C@H](NC(=O)[C@H](CC(C)C)NC(=O)[C@H](Cc1ccc(O)cc1)NC(=O)[C@@H](CCC(=O)O)NC(=O)[C@@H](NC(=O)[C@H](Cc1ccccc1)NC(=O)[C@@H](NC(=O)C(C)(C)NC(=O)[C@H](CCC(N)=O)NC(=O)[C@H](C)NC(=O)[C@H](CCCCNC(=O)COCCOCCNC(=O)COCCOCCNC(=O)CC[C@H](NC(=O)CCCCCCCCCCCCCCCCCCC(=O)O)C(=O)O)NC(=O)[C@H](CCCN)NC(=O)[C@H](CC(=O)O)NC(=O)[C@H](CC(C)C)NC(=O)[C@](C)(CC(C)C)NC(=O)[C@@H](NC(=O)[C@H](CO)NC(=O)[C@H](Cc1c[nH]cn1)NC(=O)[C@H](CC(=O)O)NC(=O)[C@H](CO)NC(=O)[C@@H](NC(=O)[C@](C)(Cc1ccccc1F)NC(=O)[C@@H](NC(=O)CNC(=O)[C@H](CCC(=O)O)NC(=O)C(C)(C)NC(=O)[C@@H](N)Cc1ccc(O)cc1)[C@@H](C)O)[C@@H](C)O)[C@@H](C)CC)[C@@H](C)O)[C@@H](C)CC)C(=O)N[C@@H](CCC(=O)O)C(=O)NCC(=O)NCC(=O)N1CCC[C@H]1C(=O)N[C@@H](CO)C(=O)N[C@@H](CO)C(=O)NCC(=O)N[C@@H](C)C(=O)N1CCC[C@H]1C(=O)N1CCC[C@H]1C(=O)N1CCC[C@H]1C(=O)N[C@@H](CO)C(N)=O` [Example 171] (H-Y[Aib]EGT[αMePhe(2-F)]TSDHSI[αMeL]LD[Orn]K([AEEA-AEEA-γGlu-C20 diacid])AQ[Aib]TFI[dE]YLIEGGPSSGAPPPS-NH2) gave an EC50 [1] of 0.75 nM and an EC50 [2] of 0.223 nM.
